Measurements as given in BindingDB's records for doi:10.7270/Q2833QWM (D3R/Abbott, 2015).

Molecular target: T1, tRNA (guanine-N(1)-)-methyltransferase (Haemophilus influenzae (strain ATCC 51907 / DSM 11121 / KW20 / Rd), UniProt P43912)
T1 sequence (P43912 whole entry): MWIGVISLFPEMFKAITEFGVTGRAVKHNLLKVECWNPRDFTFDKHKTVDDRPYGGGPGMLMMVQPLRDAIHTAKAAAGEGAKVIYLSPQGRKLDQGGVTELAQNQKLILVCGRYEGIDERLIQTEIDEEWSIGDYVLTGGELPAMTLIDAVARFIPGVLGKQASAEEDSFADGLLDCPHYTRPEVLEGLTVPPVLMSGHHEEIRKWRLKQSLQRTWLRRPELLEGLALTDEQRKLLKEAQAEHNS
Assay: ScintillationProximity_Assay
Text: ScintillationProximity_Assay

Row | IC50 [µM] | Compound
1 | 158 | c1cc(-c2c[nH]cn2)ccn1
2 | 3.16 | NC(=O)c1ccc(NCc2ccccc2)nc1 [GTC000444A]
3 | 316 | c1cc(-c2ncc[nH]2)ccn1 [GTC000447A]
4 | 39.8 | Nc1nonc1C(=O)NCc1ccc(Cl)cc1 [GTC000448A]
5 | 2 | NC(=O)c1ccc(NCc2cccc(O)c2)nc1 [GTC000452A]
6 | 3.98 | CN(C)c1cccc(CNc2ccc(C(N)=O)cn2)c1 [GTC000453A]
7 | 6.31 | CN(C)c1ccccc1CNc1ccc(C(N)=O)cn1 [GTC000455A]
8 | 0.2 | NC(=O)c1ccc(NC2CCCC2)nc1 [GTC000457A]
9 | 0.501 | NC(=O)c1ccc(NCC2CCCC2)nc1 [GTC000458A]
10 | 1.26 | NC(=O)c1ccc(NCc2ccccc2O)nc1 [GTC000459A]
11 | 7.94 | Cc1cccc(C(=O)NCCC2(CNc3ccc(C(N)=O)cn3)CCCCC2)c1 [GTC000461A]
12 | 15.8 | Nc1nonc1C(=O)N1CCN(Cc2ccccn2)CC1 [GTC000463A]
13 | 0.631 | NC(=O)c1ccc(NC2CCC(c3ccccc3)C2)nc1 (stereo unspecified) [GTC000467A]
14 | 1.59 | NC(=O)c1ccc(N[C@@H]2C[C@H](CO)[C@@H](O)C2)nc1 [GTC000468A]
15 | 2 | NC(=O)c1ccc(NCc2ccccc2N2CCOCC2)nc1 [GTC000470A]
16 | 0.794 | CN1CCN(c2ccccc2CNc2ccc(C(N)=O)cn2)CC1 [GTC000471A]
17 | 2.51 | COc1ccc(C(=O)n2ncnc2N)cc1 [GTC000473A]

The remaining lines, values behind:

Row | Compound | IC50 [µM]
18 | NC(=O)c1ccc(N)nc1 [GTC000445A] | 25.1
19 | CC(C)(C)c1cccc(C(=O)NCC2(NC(=O)c3cccc4nocc34)CCCCC2)c1 [GTC000449A] | 0.00501
20 | CC(C)(C)c1cccc(C(=O)NCC2(NC(=O)c3cccc4nocc34)CCCC2)c1 [GTC000450A] | 0.00501
21 | Cc1cccc(C(=O)NCC2(NC(=O)c3cccc4nocc34)CCCC2)c1 [GTC000451A] | 0.158
22 | COc1ccccc1CNc1ccc(C(N)=O)cn1 [GTC000454A] | 0.794
23 | Nc1nonc1C(=O)N[C@@H]1CC[C@H](O)C1 [GTC000456A] | 7.94
24 | NC(=O)c1ccc(N[C@@H]2CC[C@@H](O)C2)nc1 [GTC000460A] | 0.2
25 | Nc1nonc1C(=O)NCC1CCCCC1 [GTC000462A] | 2
26 | NC(=O)c1cnc(NC2CCCC2)nc1N [GTC000464A] | 0.631
27 | Nc1nonc1C(=O)NC1CCNCC1 [GTC000465A] | 20
28 | Nc1nonc1C(=O)N[C@@H]1C[C@H]1c1ccc(S(N)(=O)=O)cc1 [GTC000466A] | 15.8
29 | NC[C@H]1CCC[C@@H](CNc2ccc(C(N)=O)cn2)C1 [GTC000469A] | 0.501
30 | CN1CCN(C(=O)c2nonc2N)CC1 [GTC000472A] | 100
31 | CC(C)(C)CNc1ncc(C(N)=O)c(N)n1 [GTC000474A] | 0.794
